Experimental data taken from the NIST ThermoML archive (doi:10.1016/j.fluid.2007.05.030).
Where “and” joins values, the source holds several entries; their conditions need not be identical. Identical values can stand only once. ± gives the expanded uncertainty stated by the source.

How the values were obtained:
[1] = excess molar enthalpy (molar enthalpy of mixing); xn = mol fraction of the nth substance listed; details: 101 kPa, Liquid
[2] = 363.15 K; Liquid

CC(=O)O [acetic acid] + OCCO
excess molar enthalpy ([1]; 298.15 K, x1 = 0.0489): 0.00662 ± 0.0021 kJ/mol
excess molar enthalpy ([1]; 298.15 K, x1 = 0.098): 0.00415 ± 0.0021 kJ/mol
excess molar enthalpy ([1]; 298.15 K, x1 = 0.1472): -0.00204 ± 0.002 kJ/mol
excess molar enthalpy ([1]; 298.15 K, x1 = 0.1964): -0.0113 ± 0.0022 kJ/mol
excess molar enthalpy ([1]; 298.15 K, x1 = 0.2458): -0.0249 ± 0.0025 kJ/mol
excess molar enthalpy ([1]; 298.15 K, x1 = 0.2953): -0.035 ± 0.003 kJ/mol
excess molar enthalpy ([1]; 298.15 K, x1 = 0.3449): -0.0459 ± 0.0029 kJ/mol
excess molar enthalpy ([1]; 298.15 K, x1 = 0.3946): -0.056 ± 0.003 kJ/mol
excess molar enthalpy ([1]; 298.15 K, x1 = 0.4444): -0.0617 ± 0.0032 kJ/mol
excess molar enthalpy ([1]; 298.15 K, x1 = 0.4944): -0.0633 ± 0.0033 kJ/mol
excess molar enthalpy ([1]; 298.15 K, x1 = 0.5444): -0.057 ± 0.003 kJ/mol
excess molar enthalpy ([1]; 298.15 K, x1 = 0.5946): -0.0446 ± 0.0029 kJ/mol
excess molar enthalpy ([1]; 298.15 K, x1 = 0.6449): -0.026 ± 0.003 kJ/mol
excess molar enthalpy ([1]; 298.15 K, x1 = 0.6953): 0.00134 ± 0.002 kJ/mol
excess molar enthalpy ([1]; 298.15 K, x1 = 0.7458): 0.0279 ± 0.0026 kJ/mol
excess molar enthalpy ([1]; 298.15 K, x1 = 0.7964): 0.0579 ± 0.0032 kJ/mol
excess molar enthalpy ([1]; 298.15 K, x1 = 0.8471): 0.0821 ± 0.0036 kJ/mol
excess molar enthalpy ([1]; 298.15 K, x1 = 0.898): 0.0938 ± 0.0039 kJ/mol
excess molar enthalpy ([1]; 298.15 K, x1 = 0.9489): 0.077 ± 0.004 kJ/mol
excess molar enthalpy ([1]; 323.15 K, x1 = 0.049): 0.0203 ± 0.0024 kJ/mol
excess molar enthalpy ([1]; 323.15 K, x1 = 0.098): 0.0293 ± 0.0026 kJ/mol
excess molar enthalpy ([1]; 323.15 K, x1 = 0.1472): 0.0264 ± 0.0025 kJ/mol
excess molar enthalpy ([1]; 323.15 K, x1 = 0.1965): 0.0217 ± 0.0024 kJ/mol
excess molar enthalpy ([1]; 323.15 K, x1 = 0.2459): 0.0127 ± 0.0023 kJ/mol
excess molar enthalpy ([1]; 323.15 K, x1 = 0.2954): 0.0072 ± 0.0021 kJ/mol
excess molar enthalpy ([1]; 323.15 K, x1 = 0.345): -0.00086 ± 0.002 kJ/mol
excess molar enthalpy ([1]; 323.15 K, x1 = 0.3947): -0.0063 ± 0.0021 kJ/mol
excess molar enthalpy ([1]; 323.15 K, x1 = 0.4445): -0.0096 ± 0.0022 kJ/mol
excess molar enthalpy ([1]; 323.15 K, x1 = 0.4945): -0.007 ± 0.002 kJ/mol
excess molar enthalpy ([1]; 323.15 K, x1 = 0.5445): -0.0011 ± 0.002 kJ/mol
excess molar enthalpy ([1]; 323.15 K, x1 = 0.5947): 0.0118 ± 0.0022 kJ/mol
excess molar enthalpy ([1]; 323.15 K, x1 = 0.645): 0.0307 ± 0.0026 kJ/mol
excess molar enthalpy ([1]; 323.15 K, x1 = 0.6953): 0.0526 ± 0.0031 kJ/mol
excess molar enthalpy ([1]; 323.15 K, x1 = 0.7458): 0.0792 ± 0.0036 kJ/mol
excess molar enthalpy ([1]; 323.15 K, x1 = 0.7964): 0.102 ± 0.004 kJ/mol
excess molar enthalpy ([1]; 323.15 K, x1 = 0.8472): 0.121 ± 0.004 kJ/mol
excess molar enthalpy ([1]; 323.15 K, x1 = 0.898): 0.124 ± 0.005 kJ/mol
excess molar enthalpy ([1]; 323.15 K, x1 = 0.9489): 0.0942 ± 0.0039 kJ/mol

CC(=O)OCCOC(C)=O [ethylene diacetate]
vapor or sublimation pressure [2]: 2.744 ± 0.12 kPa [middle of 4 runs]

CC(=O)OCCOC(C)=O [ethylene diacetate] + CC(=O)O
excess molar enthalpy ([1]; 323.15 K, Flow calorimetry, x2 = 0.1086): 0.175 ± 0.003 kJ/mol
excess molar enthalpy ([1]; 323.15 K, Flow calorimetry, x2 = 0.2045): 0.275 ± 0.004 kJ/mol
excess molar enthalpy ([1]; 323.15 K, Flow calorimetry, x2 = 0.2899): 0.331 ± 0.004 kJ/mol
excess molar enthalpy ([1]; 323.15 K, Flow calorimetry, x2 = 0.3665): 0.361 ± 0.005 kJ/mol
excess molar enthalpy ([1]; 323.15 K, Flow calorimetry, x2 = 0.4354): 0.374 ± 0.005 kJ/mol
excess molar enthalpy ([1]; 323.15 K, Flow calorimetry, x2 = 0.4979): 0.374 ± 0.005 kJ/mol
excess molar enthalpy ([1]; 323.15 K, Flow calorimetry, x2 = 0.5547): 0.367 ± 0.005 kJ/mol
excess molar enthalpy ([1]; 323.15 K, Flow calorimetry, x2 = 0.6067): 0.349 ± 0.005 kJ/mol
excess molar enthalpy ([1]; 323.15 K, Flow calorimetry, x2 = 0.6544): 0.328 ± 0.004 kJ/mol
excess molar enthalpy ([1]; 323.15 K, Flow calorimetry, x2 = 0.6982): 0.308 ± 0.004 kJ/mol
excess molar enthalpy ([1]; 323.15 K, Flow calorimetry, x2 = 0.7388): 0.28 ± 0.004 kJ/mol
excess molar enthalpy ([1]; 323.15 K, Flow calorimetry, x2 = 0.7763): 0.251 ± 0.004 kJ/mol
excess molar enthalpy ([1]; 323.15 K, Flow calorimetry, x2 = 0.8112): 0.22 ± 0.003 kJ/mol
excess molar enthalpy ([1]; 323.15 K, Flow calorimetry, x2 = 0.8437): 0.187 ± 0.003 kJ/mol
excess molar enthalpy ([1]; 323.15 K, Flow calorimetry, x2 = 0.8741): 0.157 ± 0.003 kJ/mol
excess molar enthalpy ([1]; 323.15 K, Flow calorimetry, x2 = 0.9025): 0.122 ± 0.002 kJ/mol
excess molar enthalpy ([1]; 323.15 K, Flow calorimetry, x2 = 0.9291): 0.0912 ± 0.0019 kJ/mol
excess molar enthalpy ([1]; 323.15 K, Flow calorimetry, x2 = 0.9542): 0.0585 ± 0.0016 kJ/mol
excess molar enthalpy ([1]; 323.15 K, Flow calorimetry, x2 = 0.9778): 0.028 ± 0.0013 kJ/mol

CC(=O)OCCOC(C)=O [ethylene diacetate] + O
excess molar enthalpy ([1]; 323.15 K, Flow calorimetry, x2 = 0.0844): 0.629 ± 0.007 kJ/mol
excess molar enthalpy ([1]; 323.15 K, Flow calorimetry, x2 = 0.1574): 1 ± 0.011 kJ/mol
excess molar enthalpy ([1]; 323.15 K, Flow calorimetry, x2 = 0.2211): 1.25 ± 0.014 kJ/mol
excess molar enthalpy ([1]; 323.15 K, Flow calorimetry, x2 = 0.2771): 1.38 ± 0.015 kJ/mol
excess molar enthalpy ([1]; 323.15 K, Flow calorimetry, x2 = 0.3713): 1.5 ± 0.016 kJ/mol
excess molar enthalpy ([1]; 323.15 K, Flow calorimetry, x2 = 0.4473): 1.51 ± 0.016 kJ/mol
excess molar enthalpy ([1]; 323.15 K, Flow calorimetry, x2 = 0.5624): 1.27 ± 0.014 kJ/mol
excess molar enthalpy ([1]; 323.15 K, Flow calorimetry, x2 = 0.6455): 1.02 ± 0.011 kJ/mol
excess molar enthalpy ([1]; 323.15 K, Flow calorimetry, x2 = 0.7342): 0.76 ± 0.009 kJ/mol
excess molar enthalpy ([1]; 323.15 K, Flow calorimetry, x2 = 0.8138): 0.524 ± 0.006 kJ/mol
excess molar enthalpy ([1]; 323.15 K, Flow calorimetry, x2 = 0.8793): 0.334 ± 0.004 kJ/mol
excess molar enthalpy ([1]; 323.15 K, Flow calorimetry, x2 = 0.9161): 0.224 ± 0.003 kJ/mol
excess molar enthalpy ([1]; 323.15 K, Flow calorimetry, x2 = 0.9444): 0.144 ± 0.003 kJ/mol
excess molar enthalpy ([1]; 323.15 K, Flow calorimetry, x2 = 0.9668): 0.0791 ± 0.0018 kJ/mol
excess molar enthalpy ([1]; 323.15 K, Flow calorimetry, x2 = 0.9808): 0.0338 ± 0.0013 kJ/mol

CC(=O)OCCOC(C)=O [ethylene diacetate] + OCCO
excess molar enthalpy ([1]; 323.15 K, Flow calorimetry, x1 = 0.0219): 0.202 ± 0.003 kJ/mol
excess molar enthalpy ([1]; 323.15 K, Flow calorimetry, x1 = 0.0451): 0.404 ± 0.005 kJ/mol
excess molar enthalpy ([1]; 323.15 K, Flow calorimetry, x1 = 0.0698): 0.594 ± 0.007 kJ/mol
excess molar enthalpy ([1]; 323.15 K, Flow calorimetry, x1 = 0.096): 0.795 ± 0.009 kJ/mol
excess molar enthalpy ([1]; 323.15 K, Flow calorimetry, x1 = 0.1241): 0.969 ± 0.011 kJ/mol
excess molar enthalpy ([1]; 323.15 K, Flow calorimetry, x1 = 0.1541): 1.12 ± 0.012 kJ/mol
excess molar enthalpy ([1]; 323.15 K, Flow calorimetry, x1 = 0.1862): 1.26 ± 0.014 kJ/mol
excess molar enthalpy ([1]; 323.15 K, Flow calorimetry, x1 = 0.2208): 1.39 ± 0.015 kJ/mol
excess molar enthalpy ([1]; 323.15 K, Flow calorimetry, x1 = 0.258): 1.51 ± 0.016 kJ/mol
excess molar enthalpy ([1]; 323.15 K, Flow calorimetry, x1 = 0.2982): 1.63 ± 0.017 kJ/mol
excess molar enthalpy ([1]; 323.15 K, Flow calorimetry, x1 = 0.3419): 1.73 ± 0.018 kJ/mol
excess molar enthalpy ([1]; 323.15 K, Flow calorimetry, x1 = 0.3893): 1.82 ± 0.019 kJ/mol
excess molar enthalpy ([1]; 323.15 K, Flow calorimetry, x1 = 0.4411): 1.91 ± 0.02 kJ/mol
excess molar enthalpy ([1]; 323.15 K, Flow calorimetry, x1 = 0.4979): 1.95 ± 0.021 kJ/mol
excess molar enthalpy ([1]; 323.15 K, Flow calorimetry, x1 = 0.5604): 1.94 ± 0.02 kJ/mol
excess molar enthalpy ([1]; 323.15 K, Flow calorimetry, x1 = 0.6296): 1.89 ± 0.02 kJ/mol
excess molar enthalpy ([1]; 323.15 K, Flow calorimetry, x1 = 0.7066): 1.75 ± 0.018 kJ/mol
excess molar enthalpy ([1]; 323.15 K, Flow calorimetry, x1 = 0.7927): 1.45 ± 0.015 kJ/mol
excess molar enthalpy ([1]; 323.15 K, Flow calorimetry, x1 = 0.8898): 0.905 ± 0.01 kJ/mol

O [water]
vapor or sublimation pressure [2]: 70.09 ± 1.2 kPa and 69.93 ± 1.2 kPa
